Assay results published in ChEMBL document CHEMBL5357008, “Novel Pyrazolopyridine Inhibitors of Monoacylglycerol Lipase for the Treatment of Neurodegenerative Diseases and Neuroinflammation” (ACS Med Chem Lett, 2024).

Target: T1, Monoglyceride lipase (Homo sapiens, UniProt Q99685)
T1 sequence (Q99685 whole entry): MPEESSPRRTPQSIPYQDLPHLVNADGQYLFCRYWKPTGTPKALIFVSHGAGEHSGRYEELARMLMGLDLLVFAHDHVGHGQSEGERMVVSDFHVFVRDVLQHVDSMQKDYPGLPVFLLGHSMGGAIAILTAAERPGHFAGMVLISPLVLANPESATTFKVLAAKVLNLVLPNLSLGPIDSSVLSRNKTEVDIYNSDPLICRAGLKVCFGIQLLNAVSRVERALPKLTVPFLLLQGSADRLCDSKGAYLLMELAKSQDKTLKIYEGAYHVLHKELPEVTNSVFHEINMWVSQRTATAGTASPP
Test: Inhibition of MAGL (unknown origin) using 2-arachidonoylglycerol as substrate preincubated with compound for 15 mins followed by substrate addition and measured after 30 mins by mass spectrometer analysis

IC50 [nM] | Structure (SMILES)
5 | CC1c2nn(C)c(-c3cc(F)cc(F)c3)c2CCN1C(=O)c1cc(F)cc(OCC2CNC(=O)C2)c1Cl (stereo not drawn)
27 | COc1cccc(C(=O)N2CCc3c(nn(C)c3-c3cc(Cl)cc(CS(N)(=O)=O)c3)[C@@H]2C)c1Cl
2 | C[C@H]1c2nn(C)c(-c3cc(F)cc(F)c3)c2CCN1C(=O)c1cc(F)cc(OCC2CNC(=O)O2)c1Cl (stereo partly drawn)
